Experimental data: US6693166B1, “Cdk5—specific inhibitory peptides” (Hong Kong University of Science and Technology, priority 1999, dated 2004)
Where a SMILES comes first, the peptide text is derived from it. Where no end group is shown, it is not given here.

Assays:
[1] = target: T1, GST-Cdk2-cyclin A-H6 complex (Homo sapiens, UniProt P24941); assay: Peptide/Cdk binding assay: GSH-bead co-precipitation and Western blot of cyclin A; details: various amounts of peptide (0.5, 2, 10 μM; 1000-fold excess)
T1 construct: made in house; host or cells: E. coli BL21(DE3) (cyclin A-H6); GST-Cdk2 not described
Description: The binding of the αN peptide to the GST-Cdk2-cyclin A-H6 complex was studied in a similar manner to that described above for H6-Cdk5. Briefly, 3 μg of GST-Cdk2 and 10 μg of cyclin A-H6 were reconstituted in Buffer R with various concentrations of the αN peptide at 4° C. for 15 h. GST-Cdk2 was then precipitated by the addition of 20 μl of GSH-Sepharose beads. After washing, the co-precipitated cyclin A-H6 was detected by SDS-PAGE followed by Western blot using a monoclonal antibody against cyclin A (Santa Cruz).
To discriminate between these possibilities, we performed direct binding competition experiments. Various concentrations of the peptides were added to a H6-Cdk5.GST-Nck5a mixture, and GST-Nck5a was then precipitated using GSH-agarose beads. The amount of H6-Cdk5 in complex with GST-Nck5a was determined by Western blotting of the enzyme co-precipitated by GSH-agarose beads. The amount of H6-Cdk5 and cyclin A-H6 used in the experiment described in FIG. 4, A and B, were chosen to ensure that their respective antibodies would be in excess.

[2] = target: T2, H6-Cdk5.GST-Nck5a complex (Homo sapiens, UniProt Q00535); assay: Peptide/Cdk binding assay: GSH-bead co-precipitation and Western blot of Cdk5; details: various amounts of peptide (5, 20, 50 μM; 1000-fold excess)
T2 construct: made in house; host or cells: Escherichia coli M15 (H6-Cdk5)
Description: Peptide/Cdk Binding Assay—H6-Cdk5 (about 3 μg) and 15 μg of GST-p25 were premixed in 300 μl of 1×phosphate-buffered saline with 0.5 mg/ml bovine serum albumin. Some 50-μl quantities of the mixture was taken out to mix with various concentrations of the αN peptide (from serial dilutions made from a 2.0 mM stock solution), and the total volume of the mixture was adjusted to 150 μl using Buffer R (1×phosphate-buffered saline containing 1 mM EDTA, 1 mM dithiothreitol, 0.6 mM phenylmethylsulfonyl fluoride, 1 μg/ml leupeptin, 1 μg/ml leupeptin, 1 μg/ml antipain, 5 mg/ml bovine serum albumin). The reaction mixture was incubated at 4° C for 15 h. GST-Nck5a-H6-Cdk5 complex was then precipitated by the addition of 40 μl of GSH-Sepharose beads pre-equilibrated with 1×phosphate-buffered saline (50%, v/v). The GSH-Sepharose beads were washed three times with 1×phosphate-buffered saline buffer, and subsequently resuspended in 20 μl of water and 20 μl of 2×protein sample treatment buffer. The co-precipitated H6-Cdk5 was detected by SDS-PAGE followed by Western blot using a monoclonal antibody against Cdk5.
To discriminate between these possibilities, we performed direct binding competition experiments. […] The amount of H6-Cdk5 in complex with GST-Nck5a was determined by Western blotting of the enzyme co-precipitated by GSH-agarose beads. […]

[3] = target: T1, GST-Cdk2-cyclin A-H6 complex; assay: Peptide inhibition of Cdk2 kinase activity (histone H1 peptide, [γ-32P]ATP); format: biochemical; details: for inhibition of Cdk2 kinase activity (in words): GST-Cdk2.cyclin A-H6, FIG. 3B
Description: The C-terminal histidine-tagged human cyclin A (cyclin A-H6) was expressed and purified in essentially the same manner as described for H6-Cdk5. Briefly, the expression plasmid pET21d containing a cyclin A gene lacking the N-terminal 173 amino acids was transformed into BL21(DE3) E. coli cells. The host cells were cultured in LB medium containing 100 μg/ml ampicillin, and cyclin A expression was induced by adding isopropyl-1-thio-β-D-galactopyranoside to a final concentration of 0.1 mM. The induction of cyclin A expression was for 3 h at 30° C. The pelleted cells were resuspended in 50 mM Tris-HCI, pH 7.5, 300 mM NaCl, and 0.05% Triton X-100, and then lysed in the French press. The subsequent purification of cyclin A using a Ni^2+-NTA column was carried out in a manner identical to that described for the purification of H6-Cdk5. The monomeric, active form of cyclin A-H6 was further purified by passing the cyclin A-H6-containing eluent through a Sephacryl S-200 gel filtration column (Amersham Pharmacia Biotech).
(§1) Peptide Inhibition of Cdk5 and Cdk2 Kinase Activity—Cdk5 kinase activity was assayed essentially as described previously, except that for each Cdk5 kinase reaction 1 μg of GST-Cdk5 was reconstituted with 2 μg of GST-Nck5a, and 1 μg of GST-Cdk2 was mixed with 3 μg of cyclin A-H6 in Cdk2 assays. The reconstituted complexes were added, in duplicate, to an assay mixture containing 30 mM MOPS, pH 7.4, 10 mM MgCl2, 40 μM of the histone H1 peptide, 50 μM [γ-^32P]ATP, and various concentrations of various peptides at 30° C. for 30 min before measuring the Cdk5 and Cdk2 kinase activities.

[4] = target: T3, GST-Cdk5.GST-Nck5a complex (Homo sapiens, UniProt Q00535); assay: Peptide inhibition of Cdk5 kinase activity (histone H1 peptide, [γ-32P]ATP); format: biochemical; details: for inhibition of Cdk5 kinase activity (in words): GST-Cdk5.GST-Nck5a, FIG. 2 and 3A
T3 construct: made in house
Description: as §1

[5] = target: T3, GST-Cdk5.GST-Nck5a complex; assay: Steady state kinetic analysis of Cdk5 inhibition (double reciprocal and Dixon plots); format: biochemical
Description: as §1
Steady State Kinetic Experiments—All assay conditions were the same as in the inhibition assay described above, except that the reaction time was kept at 15 min so that the product formed was less than 5% of the total substrate concentration used. To determine suitable concentrations of the substrate and the inhibitor for the steady state kinetic experiments, the Km value of GST-Cdk5.GST-Nck5a complex and a concentration-dependent inhibition profile of the enzyme by the αN peptide were determined. Four different concentrations of the histone H1 peptide (7.5, 10, 15, and 30 μM) were used in the kinetic analysis of the enzyme inhibition. For each substrate concentration, four concentrations of the αN peptide (0, 10, 20, and 30 μM) were used in the inhibition assay.

[6] = listed as Nck5a-derived peptide

T3 sequence (Q00535 whole entry): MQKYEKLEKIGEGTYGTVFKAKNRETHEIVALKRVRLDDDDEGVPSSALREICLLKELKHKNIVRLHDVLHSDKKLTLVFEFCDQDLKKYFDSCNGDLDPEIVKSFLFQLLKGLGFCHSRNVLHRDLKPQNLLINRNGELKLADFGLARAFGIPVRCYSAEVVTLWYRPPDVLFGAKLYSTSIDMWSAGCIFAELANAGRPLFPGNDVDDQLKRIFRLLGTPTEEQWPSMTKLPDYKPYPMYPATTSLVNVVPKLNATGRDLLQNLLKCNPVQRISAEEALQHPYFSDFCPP
T3 sequence (Q15078 99-307 partner limits assumed): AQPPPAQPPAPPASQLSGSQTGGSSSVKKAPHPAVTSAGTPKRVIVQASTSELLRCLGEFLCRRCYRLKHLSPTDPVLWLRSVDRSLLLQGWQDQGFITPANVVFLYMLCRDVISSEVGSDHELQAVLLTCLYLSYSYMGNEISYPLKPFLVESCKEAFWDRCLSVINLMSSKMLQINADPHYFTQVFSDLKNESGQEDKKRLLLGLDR
T2 sequence (Q00535 whole entry): as the sequence (Q00535 whole entry) above
T2 sequence (Q15078 99-307 partner limits assumed): as the sequence (Q15078 99-307 partner limits assumed) above

| Compound | dissociation of cyclin A from Cdk2 on addition of peptide [1] | dissociation of cyclin A from Cdk2 on addition of peptide [1, 6] | dissociation of Nck5a from Cdk5 on addition of peptide [2] | dissociation of Nck5a from Cdk5 on addition of peptide [2, 6] | inhibition at 0.5 µM ([3]; 0.5 μM peptide) [%] | inhibition at 2 µM ([3]; 2 μM peptide) [%] | inhibition at 10 µM ([3]; 10 μM peptide) [%] | inhibition of Cdk2 kinase activity (in words) [3] | inhibition at 5 µM ([4]; 5 μM peptide, heading: inhibition of Cdk5 activity) [%] | inhibition at 20 µM ([4]; 20 μM peptide) [%] | inhibition at 50 µM ([4]; 50 μM peptide) [%] | inhibition of Cdk5 activity ([4]; 50 μM peptide) | effect of a large excess of GST-Nck5a on Cdk5 inhibition by the peptide ([4]; 50 μM peptide, 2, 20, 40 μg GST-p25 with 1 μg GST-Cdk5) | inhibition of the kinase by an excess amount of peptide ([5]; 400 μM peptide, data not shown) | mode of inhibition with respect to the substrate (histone H1 peptide) ([5]; double-reciprocal plot) | inhibition of Cdk5 kinase activity (in words) [4] | Cdk5 kinase activity inhibited ([4]; GST-αN concentration of 5 μM) |
| --- | --- | --- | --- | --- | --- | --- | --- | --- | --- | --- | --- | --- | --- | --- | --- | --- | --- |
| CC(C)C[C@H](NC(=O)[C@H](CS)NC(=O)[C@H](CCCNC(=N)N)NC(=O)[C@H](CC(C)C)NC(=O)[C@H](CC(C)C)NC(=O)[C@H](CCC(=O)O)NC(=O)[C@H](CO)NC(=O)[C@@H](NC(=O)[C@H](CO)NC(=O)[C@H](C)N)[C@@H](C)O)C(=O)NCC(=O)N[C@@H](CCC(=O)O)C(=O)N[C@@H](Cc1ccccc1)C(=O)N[C@@H](CC(C)C)C(=O)N[C@@H](CS)C(=O)N[C@@H](CCCNC(=N)N)C(=O)N[C@@H](CCCNC(=N)N)C(=O)N[C@@H](CS)C(=O)N[C@@H](Cc1ccc(O)cc1)C(=O)N[C@@H](CCCNC(=N)N)C(=O)N[C@@H](CC(C)C)C(=O)N[C@@H](CCCCN)C(=O)N[C@@H](Cc1c[nH]cn1)C(=O)N[C@@H](CC(C)C)C(=O)N[C@@H](CO)C(=O)N1CCC[C@H]1C(=O)N[C@H](C(=O)N[C@@H](CC(=O)O)C(=O)O)[C@@H](C)O [αN peptide] (H-ASTSELLRCLGEFLCRRCYRLKHLSPTD-OH; N-terminus and C-terminus assumed) | formation of a ternary complex | does not lead to the dissociation of Nck5a from Cdk5 or cyclin A from Cdk2 | did not lead to a dissociation of GST-Nck5a from H6-Cdk5 | does not lead to the dissociation of Nck5a from Cdk5 | 10 | 50 | 90 | even higher potency than in the case with Cdk5.Nck5a inhibition | 10 | 50 | 90 | about 90% | no significant effect | near complete inhibition | noncompetitive inhibitor |  |  |
| GST-αN: GST fusion mutant containing a 29-residue peptide fragment corresponding to residues Gln145 to Asp173 of Nck5a (QASTSELLRCLGEFLCRRCYRLKHLSPTD; cysteine pairing not given here; also: fused to GST) |  |  |  |  |  |  |  | also inhibited the kinase activity of Cdk2 |  |  |  |  |  |  |  | inhibit Cdk5 kinase activity in a dose-dependent manner | About 50% |
| DYHDIHTYLREMEVKPKPKVGYMKKQPDIT (DYHEDIHTYLREMEVKCKPKVGYMKKQPDIT; listed as Homo sapiens) [cyclin A peptide, 31-residue peptide corresponding to Asp177 to Thr207 of human cyclin A, the N-terminal alpha-helix, reference compound] |  |  |  |  |  |  |  | inhibited neither GST-Cdk5.GST-Nck5a nor GST-Cdk2.cyclin A-H6 |  |  |  |  |  |  |  | inhibited neither GST-Cdk5.GST-Nck5a nor GST-Cdk2.cyclin A-H6 |  |
